# Where two headings read alike, the source gives them in different places.
# What was measured:
# [1] = system: bovine microvessel endothelial cells (BMECs); experiment: Transport across BMEC monolayers in vitro; type: in vitro ADME
# Protocol: In this example, BMECs were grown on 0.4 μm polycarbonate membranes in a petri dish coated with rat tail collagen and fibronectin. […] Briefly, each chamber was filled with 3 mL of PBSA and the donor chamber included KU-1/A4 (10 μM). A temperature of 37° C. was maintained with an external circulating water bath and chamber contents were stirred with Teflon coated magnetic stir bars driven by an external console. At various time points (5, 15, 30, 45, and 90 minutes), 100 μL aliquots were removed from the receiver side and replaced with 100 μL of blank PBSA warmed to 37° C. Samples of the donor solution were also taken for analysis. All samples were analyzed for concentration by RP-HPLC analysis using a Shimadzu dual pump HPLC system equipped with an Alltech (C18, 4.6 mm×150 mm) column. The solvent system consisted of H2O (solvent A) and methanol (solvent B). Analytical samples were eluted with 20% solvent B over 10 minutes at a flow rate of 0.90 mL/min and UV detection at 208 nm. […] The integrity of the cell monolayer was tested post experiment by monitoring the permeability of [^14C]-sucrose, a low permeability marker. Radioactive samples were analyzed by liquid scintillation counting.
# [2] = system: primary cortical neurons exposed to Aβ25-35; experiment: Protection against Aβ-induced toxicity in primary neurons (Live-Dead assay); type: cell-based, rat
# Protocol: In this example, the neuroprotective effects of KU-1/A4 were determined in primary neurons derived from embryonic rat brain exposed to Aβ (10 μM) in the presence or absence of the test compound for 48 hours. The percentage of surviving neurons was determined by labeling with the fluorescent dyes calcein-AM and propidium iodide as previously described. […] The numbers of calcein-labeled live cells and propidium iodide-labeled dead neurons in several fields were visualized via fluorescence microscopy and counted as described.
# Briefly, about 10 to 16 brains were removed from fetuses delivered by cesarean section, and the cortices dissected out. The neurons were isolated and suspended in DMEM/F12 supplemented with 10% FBS and plated on sterile dishes or cover slips coated with 10 μg/ml poly-D-lysine and 5 μg/ml mouse laminin. After 24 hours, the serum-containing medium was removed, and neurons were maintained in Neurobasal medium (Gibco) with 2% B-27 supplements (Gibco). Cells were maintained in culture at 37° C. in 5% CO2 and 97% humidity for 7 to 8 eight days in vitro (DIV) before use. Neurons were exposed to 0.004% DMSO or the indicated concentrations of GA or KU-1/A4 for two hours before the addition of 10 μM Aβ25-35 for either 24 or 48 hours as indicated. Stock solutions of Aβ were prepared in sterile water at a concentration of 1.3 mM and stored at −20° C. Aliquots of the stock solutions were diluted to 1 mM in sterile 50 mM Tris-HCl, pH 7.4, and incubated at 37° C. for 24 hours to promote oligomerization of the peptides prior to treatment of the neurons. The effects of KU-1/A4, GA, Aβ, or the indicated combinations on neuronal viability were determined by monitoring cell survival using the Live-Dead assay as previously described. […] Digital images from 6 fields per dish were captured, and the number of viable (green) and dead (red) cells counted. All experiments were conducted with duplicate dishes from at least two neuronal preparations for each treatment, with about 1,000 cells analyzed/treatment condition. The data are expressed as the fraction of viable cells calculated from the total number of neurons counted under each treatment condition. The significance of differences between cultures exposed to various treatment conditions was determined using Student's t-test.
# [3] = system: Hsp90, androgen receptor and AKT in LNCaP prostate cancer cells; experiment: Western blot of Hsp90 and client proteins (AR, AKT) in LNCaP cells; type: cell-based; settings: 24 hours
# Protocol: FIG. 3 (top panel) is a western blot analysis of prostate cancer LNCaP cells treated with KU-1/A4. The bottom panel is a western blot analysis of prostate cancer LAPC-4 cells incubated with KU-1/A4. Actin was used as a control in both assays. […] Western blot analysis of the effects of KU-1/A4 on Hsp90 client proteins in prostate cancer LNCaP cells. Cells were treated with varying concentrations of KU-1/A4 for 24 hours and probed for the androgen receptor (“AR”), protein kinase […] (“AKT”), Hsp90, and actin.
# The steroid hormone receptors are also dependent upon the Hsp90 protein folding machinery for activation and hormone binding. To determine whether KU-1/A4 had similar effects on the androgen receptor, KU-1/A4 was tested in both a mutated androgen receptor-dependent prostate cancer cell line (LNCaP) and a wild type androgen receptor prostate cancer cell line (LAPC-4). More specifically, the prostate cancer cells were grown in RPMI with 10% fetal calf serum in a standard fashion. Once the cells had reached near confluence, they were treated with vehicle (DMSO) or varying concentrations of KU-1/A4 ranging from 10 nm to 100 μM for 24 hours. Cells were harvested and cell lysates prepared. […] More specifically, Western Blot analysis protein concentrations in serum samples were determined by the Pierce BCA protein assay kit according to the manufacturer's protocol. […]
smiles,measurement,setting,value
"CO[C@@H]1[C@@H](O)[C@@H](O)[C@H](Oc2ccc3cc(NC(C)=O)c(=O)oc3c2)OC1(C)C [KU-1/A4, N-(7-((2R,3R,4S,5R)-3,4-dihydroxy-5-methoxy-6,6-dimethyl-tetrahydro-2H-pyran-2-yloxy)-2-oxo-2H-chromen-3-yl)acetamide]",time until abluminal chamber concentration sufficed for full neuroprotective effects,[1]; 10 μM in donor chamber,≤ 15 min
same,concentration in the receiving chamber,"[1]; 10 μM in donor chamber, 90 minutes",1200 nM
same,transport across BMECs,"[1]; 10 μM in donor chamber, up to 90 minutes",time-dependent linear transport
same,receiving chamber concentration relative to concentration for 50% neuroprotection,[1]; 90 minutes,200 fold
same,lowest concentration with minor neuroprotective effects,"[2]; Aβ 10 μM, 48 hours",0.5 nM
same,lowest concentration giving (significant) protection of neurons against Aβ,"[2]; Aβ 10 μM, compound added 2 hours before, viability at 48 hours",5 nM
same,EC50,"[2]; Rattus norvegicus, Primary cortical neuron, read-out: EC50, prevention of Aβ-induced toxicity, Aβ 10 μM, compound added 2 hours before, viability at 48 hours",~6 nM
same,EC50,"[2]; read-out: EC50, prevention of Aβ-induced toxicity, Aβ 10 μM, compound added 2 hours before, viability at 48 hours",5 nM
same,concentration at which degradation of client proteins AR and AKT occurs,[3],1 µM
same,lowest concentration inducing Hsp90,[3],10 nM

# — US9120774B2 (University of Kansas, priority 2009, dated 2015)
